Test results: PMC11939470, “The Cyclic Antimicrobial Peptide C-LR18 Has Enhanced Antibacterial Activity, Improved Stability, and a Longer Half-Life Compared to the Original Peptide” (Antibiotics, 2025)

Assays:
[1] = tested on: E. coli ATCC25922; assay: Membrane permeability assay (propidium iodide uptake, flow cytometry); assay type: cell-based; settings: melittin 4 μM, positive control, 30 min 37 °C
Protocol: The effect of C-LR18 on bacterial membrane permeability was measured using the propidium iodide (PI) uptake assay described in [22]. E. coli ATCC25922 in logarithmic growth phase were adjusted to 1 × 10^6 CFU/mL. C-LR18 was added with the final concentration of 4 μM. The mixtures were incubated for 30 min at 37 °C. […] After eliminating unbound dye by washing twice with PBS, the bacterial cells were detected using a flow cytometer (Ex = 535 nm/Em = 615 nm). The results were analyzed using FlowJo 6.2.1 and GraphPad Prism 5 software.

[2] = cited from earlier work
From the text: An in vivo toxicity test is an essential step in the safety evaluation of exogenous drugs. The purpose is to observe the systemic toxicity of drugs on animals, including whether there are adverse physiological reactions, pathological changes in organs and tissues of the whole body, and the mortality of animals. Therefore, before the treatment of C-LR18 on E. coli-infected mice, we tested the acute toxicity of C-LR18 in mice.

[3] = tested on: E. coli Y1; assay: Bacterial load in liver and spleen of mice; assay type: in vivo; settings: polymyxin B 1 mg/kg, positive control, one mouse every 24 h
Protocol: One hour after the mice were intraperitoneally injected with 0.5 mL of E. coli Y1 suspension (10^9 CFU/mL), C-LR18 was injected into the mice at a dose of 7.5 mg/kg through the tail vein. The normal saline group was used as negative control, and the polymyxin B group (1 mg/kg) was used as positive control. After that, one mouse was taken every 24 h, sacrificed via cervical dislocation, and the liver and spleen were removed, weighed, and added to PBS buffer for grinding at 3000 r/min for 2 min. The abrasive solution was diluted with sterile PBS (1:10,000), and 0.1 mL diluent was evenly coated in solid MH medium and cultured at 37 °C overnight. Colony counting was performed on the samples, and the bacterial colonization amount in liver and spleen was calculated.

[4] = tested on: E. coli Y1; assay: Therapeutic experiment, survival of E. coli-infected mice; assay type: in vivo, KM mice; settings: polymyxin B 5.0 mg/kg ip 1 h after ip E. coli Y1 challenge, 10 mice per group
Protocol: The mice (female, 18–21 g) were randomly divided into 6 groups, with PBS dilution as the control group. A total of 1–5 groups were injected intraperitoneally with 0.5 mL of E. coli solution containing […] CFU/mL, respectively. After inoculation, the mice were observed continuously for 5 days, and the mortality rate was recorded. The minimum dose (LD 100) at which all mice die within 5 days was used as the optimal dose for the bacterial attack in this experiment.
In order to further evaluate the therapeutic potential of antimicrobial peptide C-LR18, a mouse model infected with E. coli was constructed in this study. The Km mice (female, 18–21 g) were maintained at constant room temperature [(25 ± 2) °C] with free access to food and water for 48 h. […] A total of 0.5 mL of E. coli Y1 suspension (10^9 CFU/m L) was intraperitoneally injected into each group of mice. One hour after challenge, different doses of C-LR18 (2.5 mg/kg, 5 mg/kg, and 7.5 mg/kg) and polymyxin B (5 mg/kg) were intraperitoneally injected into mice. The group injected with the same dose of physiological water was the control group.

Row | Compound | PI fluorescence of treated cells (PI-A+) [1] [%] | LD50 [2] [mg/kg] | bacterial colonization in liver and spleen [3] | survival rate of mice [4] [%]
1 | CC[C@H](C)[C@H](NC(=O)CN)C(=O)NCC(=O)N[C@@H](C)C(=O)N[C@H](C(=O)N[C@@H](CC(C)C)C(=O)N[C@@H](CCCCN)C(=O)N[C@H](C(=O)N[C@@H](CC(C)C)C(=O)N[C@H](C(=O)N[C@H](C(=O)NCC(=O)N[C@@H](CC(C)C)C(=O)N1CCC[C@H]1C(=O)N[C@@H](C)C(=O)N[C@@H](CC(C)C)C(=O)N[C@H](C(=O)N[C@@H](CO)C(=O)N[C@@H](Cc1c[nH]c2ccccc12)C(=O)N[C@H](C(=O)N[C@@H](CCCCN)C(=O)N[C@@H](CCCNC(=N)N)C(=O)N[C@@H](CCCCN)C(=O)N[C@@H](CCCNC(=N)N)C(=O)N[C@@H](CCC(N)=O)C(=O)N[C@@H](CCC(N)=O)C(N)=O)[C@@H](C)CC)[C@@H](C)CC)[C@@H](C)O)[C@@H](C)O)C(C)C)C(C)C [Melittin, reference compound] | 83.6 | 4.98 | – | –
2 | polymyxin B [reference compound] | – | 6.52 | significantly less than that in the negative control group | 50
